Data published in patent US20070197643A1, “USE OF (Z)-2-CYANO-3-HYDROXY-BUT-2-ENOIC ACID-(4'-TRIFLUOROMETHYLPHENYL)-AMIDE FOR TREATING INFLAMMATORY BOWEL DISEASE” (AVENTIS PHARMACEUTICALS INC., priority 2004, published 2007).
Each block holds one compound with its values, some of them ahead of it.

Key:
Crohn's disease = details: small number of patients with azathioprine intolerance; cited from earlier work
multiple sclerosis = details: in vivo; cited from earlier work
[1] = system: immune cells and cell lines; details: wide variety of immune cells and cell lines; cited from earlier work
[2] = target: dihydrooate dehydrogenase (Homo sapiens, UniProt Q02127); details: enzyme essential for the synthesis of pyrimidines; cited from earlier work
inflammation = details: animal models of inflammation; cited from earlier work
[3] = amount entering the intestinal lumen after administration; type: in vivo; details: following administration of teriflunomide

Chain of dihydrooate dehydrogenase (Q02127 whole entry): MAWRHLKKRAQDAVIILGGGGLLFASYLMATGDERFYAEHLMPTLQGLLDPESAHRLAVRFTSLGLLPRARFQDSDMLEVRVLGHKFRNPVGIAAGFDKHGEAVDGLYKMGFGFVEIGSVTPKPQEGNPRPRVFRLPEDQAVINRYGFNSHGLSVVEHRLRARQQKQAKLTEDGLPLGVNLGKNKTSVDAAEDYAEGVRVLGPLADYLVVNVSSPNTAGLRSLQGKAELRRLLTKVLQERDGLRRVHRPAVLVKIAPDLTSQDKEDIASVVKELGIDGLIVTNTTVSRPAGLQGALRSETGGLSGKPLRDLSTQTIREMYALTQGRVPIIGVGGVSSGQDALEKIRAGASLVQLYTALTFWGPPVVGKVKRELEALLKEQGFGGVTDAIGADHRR

Compound: Cc1oncc1C(=O)Nc1ccc(C(F)(F)F)cc1 [leflunomide, 5-methylisoxazole-4-carboxylic-(4-trifluoromethyl)-anilide]
treatment of Crohn's disease (Crohn's disease): successful use

amount of teriflunomide entering the intestinal lumen [3]: high amounts
Compound: C/C(O)=C(\C#N)C(=O)Nc1ccc(C(F)(F)F)cc1 [Teriflunomide, (Z)-2-cyano-3-hydroxy-but-2-enoic acid-(4′-trifluoromethylphenyl)-amide]
efficacy in preclinical models of multiple sclerosis (multiple sclerosis): demonstrated efficacy | antiproliferative effects [1]: antiproliferative effects | inhibition of dihydrooate dehydrogenase [2]: inhibits | anti-inflammatory activity (inflammation): anti-inflammatory activity
